In one assay the target is T1, human recombinant Btk (Homo sapiens, UniProt Q06187).
T1 construct: purchased Invitrogen Corporation
In words: Human Recombinant Btk Enzyme Assay. Format: biochemical. Particulars: human recombinant Btk 1 nM, ATP 20 μM, 60 min room temperature; read-out: IC50 for Inhibition of Btk. The procedure: Human Recombinant Btk Enzyme Assay
To V-bottom 384-well plates were added test compounds, human recombinant Btk (1 nM, Invitrogen Corporation), fluoresceinated peptide (1.5 μM), ATP (20 μM), and assay buffer (20 mM HEPES pH 7.4, 10 mM MgCl2, 0.015% Brij35 and 4 mM DTT in 1.6% DMSO), with a final volume of 30 μL. After incubating at room temperature for 60 min, the reaction was terminated by adding 45 μl of 35 mM EDTA to each sample. The reaction mixture was analyzed on the Caliper LABCHIP® 3000 (Caliper, Hopkinton, Mass.) by electrophoretic separation of the fluorescent substrate and phosphorylated product. Inhibition data were calculated by comparison to no enzyme control reactions for 100% inhibition and no inhibitor controls for 0% inhibition. Dose response curves were generated to determine the concentration required inhibiting 50% of kinase activity (IC50). Compounds were dissolved at 10 mM in dimethylsulfoxide (DMSO) and evaluated at eleven concentrations.
Using this assay, the IC50 values of the following compounds were determined.

In a further assay the test system is Ramos RA1 B cells. In words: Ramos FLIPR Assay (intracellular calcium after anti-human IgM stimulation). It is filed as cell-based. The conditions noted are these: Ramos RA1 B cells stimulated with goat anti-human IgM 2.5 μg/mL; peak calcium; read-out: IC50 for Inhibition of Ramos FLIPR assay. As to the method: Ramos RA1 B cells (ATCC CRL-1596) at a density of 2×10^6 cells/ml in RPMI minus phenol red (Invitrogen 11835-030) and 50 mM HEPES (Invitrogen 15630-130) containing 0.1% BSA (Sigma A8577) were added to one half volume of calcium loading buffer (BD bulk kit for probenecid sensitive assays, #640177) and incubated at room temperature in the dark for 1 hour. Dye-loaded cells were pelleted (Beckmann GS-CKR, 1200 rpm, RT, 5 minutes) and resuspended in RT RPMI minus phenol red with 50 mM HEPES and 10% FBS to a density of 1×10^6 cells/ml. 150 μl aliquots (150,000/well) were plated into 96 well poly-D-lysine coated assay plates (BD 35 4640) and briefly centrifuged (Beckmann GS-CKR 800 rpm, 5 minutes, without brake). 50 μl compound dilutions in 0.4% DMSO/RPMI minus phenol red+50 mM HEPES+10% FBS were added to the wells and the plate was incubated at RT in the dark for 1 hour. Assay plate was briefly centrifuged as above prior to measuring calcium levels.
Using the FLIPR1 (Molecular devices), cells were stimulated by adding goat anti-human IgM (Invitrogen AHI0601) to 2.5 μg/mL. Changes in intracellular calcium concentrations were measured for 180 seconds and percent inhibition was determined relative to peak calcium levels seen in the presence of stimulation only.

Molecules are shown by their SMILES.

T1 sequence (Q06187 whole entry): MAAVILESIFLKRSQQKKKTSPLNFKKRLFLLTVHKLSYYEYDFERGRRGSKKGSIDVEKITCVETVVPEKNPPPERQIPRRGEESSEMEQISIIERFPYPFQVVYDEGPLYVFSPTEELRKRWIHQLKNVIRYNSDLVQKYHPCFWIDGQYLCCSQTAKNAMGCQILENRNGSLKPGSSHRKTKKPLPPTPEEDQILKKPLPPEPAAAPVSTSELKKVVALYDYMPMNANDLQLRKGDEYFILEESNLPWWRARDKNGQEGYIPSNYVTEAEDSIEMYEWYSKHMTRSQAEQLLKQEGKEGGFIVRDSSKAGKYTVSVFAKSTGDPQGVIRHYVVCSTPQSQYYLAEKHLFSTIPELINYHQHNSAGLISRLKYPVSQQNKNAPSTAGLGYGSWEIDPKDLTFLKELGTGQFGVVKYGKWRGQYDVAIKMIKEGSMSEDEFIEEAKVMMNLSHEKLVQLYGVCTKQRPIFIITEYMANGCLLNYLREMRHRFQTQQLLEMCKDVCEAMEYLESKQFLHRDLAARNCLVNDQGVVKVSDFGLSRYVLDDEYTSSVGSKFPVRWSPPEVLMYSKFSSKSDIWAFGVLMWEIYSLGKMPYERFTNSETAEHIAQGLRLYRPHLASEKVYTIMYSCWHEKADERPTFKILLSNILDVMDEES

Regarding `COCCOc1ccc2c(c1)[nH]c1c(C(N)=O)ncc(-c3cccc(N4Cc5ccc(Cl)cc5C4=O)c3C)c12` [Example 9, 4-(3-(6-Chloro-1-oxoisoindolin-2-yl)-2-methylphenyl)-7-(2-methoxyethoxy)-9H-pyrido[3,4-b]indole-1-carboxamide], the IC50 on human recombinant Btk is 2 nM. Still for that read-out and setting: under `Cc1c(-c2cnc(C(N)=O)c3[nH]c4cc(OCCO)ccc4c23)cccc1-n1cnc2ccccc2c1=O` [Example 11, 7-(2-Hydroxyethoxy)-4-(2-methyl-3-(4-oxoquinazolin-3(4H)-yl)phenyl)-9H-pyrido[3,4-b]indole-1-carboxamide] stands 3 nM. Take `Cc1c(-c2cnc(C(N)=O)c3[nH]c4cc(C(C)O)ccc4c23)cccc1-n1cnc2ccccc2c1=O` (stereo not drawn) [Example 30, 7-(1-Hydroxyethyl)-4-(2-methyl-3-(4-oxoquinazolin-3(4H)-yl)phenyl)-9H-pyrido[3,4-b]indole-1-carboxamide]: the figures for the IC50 with Ramos RA1 B cells and on human recombinant Btk were 16 nM and 3 nM, respectively. Take `COc1ccc2c(c1)C(=O)N(c1cccc(-c3cnc(C(N)=O)c4[nH]c5cc(C(C)O)ccc5c34)c1C)C2` (stereo not drawn) [Example 31, 7-(1-Hydroxyethyl)-4-(3-(6-methoxy-1-oxoisoindolin-2-yl)-2-methylphenyl)-9H-pyrido[3,4-b]indole-1-carboxamide]: the IC50 with Ramos RA1 B cells came out at 71 nM.

Regarding `COCCOc1ccc2c(c1)[nH]c1c(C(N)=O)nnc(-c3cccc(N4Cc5ccc(Cl)cc5C4=O)c3C)c12` [Example 32, 1-(3-(6-Chloro-1-oxoisoindolin-2-yl)-2-methylphenyl)-7-(2-methoxyethoxy)-5H-pyridazino[4,5-b]indole-4-carboxamide], on human recombinant Btk, the IC50 was 7 nM. The same measure, in the same setting: the same measure for `Cc1c(-c2nnc(C(N)=O)c3[nH]c4cc(OCCO)ccc4c23)cccc1-n1cnc2ccccc2c1=O` [Example 34, 7-(2-Hydroxyethoxy)-1-(2-methyl-3-(4-oxoquinazolin-3(4H)-yl)phenyl)-5H-pyridazino[4,5-b]indole-4-carboxamide]: 7 nM. Consider `COc1ccc2c(c1)C(=O)N(c1cccc(-c3nnc(C(N)=O)c4[nH]c5cc(C(C)=O)ccc5c34)c1C)C2` [Example 35, 7-Acetyl-1-(3-(6-methoxy-1-oxoisoindolin-2-yl)-2-methylphenyl)-5H-pyridazino[4,5-b]indole-4-carboxamide], for which the IC50 in the assay on Ramos RA1 B cells stood at 1380 nM; at human recombinant Btk, 57 nM. Take `COc1ccc2c(c1)C(=O)N(c1cccc(-c3nnc(C(N)=O)c4[nH]c5cc(C(C)(C)O)ccc5c34)c1C)C2` [Example 36, 7-(2-Hydroxypropan-2-yl)-1-(3-(6-methoxy-1-oxoisoindolin-2-yl)-2-methylphenyl)-5H-pyridazino[4,5-b]indole-4-carboxamide]: the IC50 at human recombinant Btk was 3 nM. Regarding `COCCOc1ccc2c(c1)[nH]c1c(C(N)=O)nc(C)c(-c3cccc(-n4cnc5ccccc5c4=O)c3C)c12` [Example 37, 7-(2-Methoxyethoxy)-3-methyl-4-(2-methyl-3-(4-oxoquinazolin-3(4H)-yl)phenyl)-9H-pyrido[3,4-b]indole-1-carboxamide], the IC50 with Ramos RA1 B cells was determined as 190 nM; on human recombinant Btk, 14 nM. The like results for `Cc1c(-c2ncc(C(N)=O)c3[nH]c4cc(C(C)(C)O)ccc4c23)cccc1N1Cc2ccc(F)cc2C1=O` [Example 41, 1-(3-(6-Fluoro-1-oxoisoindolin-2-yl)-2-methylphentl)-7-(2-hydroxypropan-2-yl)-5H-pyrido[4,3-b]indole-4-carboxamide] were, in that order, more than 500 nM and 6 nM.

Regarding `Cc1c(-c2ccc(C(N)=O)c3[nH]c4c(c23)CNCC4)cccc1-n1cnc2ccccc2c1=O` [Example 42, 9-(2-Methyl-3-(4-oxoquinazolin-3(4H)-yl)phenyl)-2,3,4,5-tetrahydro-1H-pyrido[4,3-b]indole-6-carboxamide], the half-maximal inhibitory concentration (IC50) was more than 1000 nM in the assay with Ramos RA1 B cells and 521 nM at human recombinant Btk.

As for `NC(=O)c1ncc(-c2ccccc2F)c2c1[nH]c1ccc(F)cc12` [Example 54], the IC50 at human recombinant Btk came out at 65 nM. As to `CN(C)c1ccc(C(=O)Nc2cccc(-c3cnc(C(N)=O)c4[nH]c5cc(C(=O)N6CCOCC6)ccc5c34)c2F)cc1` [Example 55], the IC50 at human recombinant Btk amounted to 43 nM. The same measure, in the same setting: the same measure for `COc1ccc2[nH]c3c(C(N)=O)ncc(-c4ccccc4F)c3c2c1` [Example 56]: 32 nM; for `Cc1ccc(C(=O)Nc2cccc(-c3cnc(C(N)=O)c4[nH]c5cc(N6CCOCC6)ccc5c34)c2F)nc1` [Example 60]: 85 nM; for `Cc1c(NC(=O)c2ccc(F)cc2)cccc1-c1cnc(C(N)=O)c2[nH]c3cc(N4CCOCC4)ccc3c12` [Example 64]: 8 nM. `Cc1c(NC(=O)N2Cc3ccc(F)cc3C2)cccc1-c1cnc(C(N)=O)c2[nH]c3cc(N4CCOCC4)ccc3c12` [Example 71]: the IC50 with Ramos RA1 B cells was determined as 71 nM; at human recombinant Btk, 3 nM. Take `NC(=O)c1ncc(-c2cccc(NC(=O)N3Cc4ccc(F)cc4C3)c2F)c2c1[nH]c1cc(N3CCOCC3)ccc12` [Example 73]: in the assay on Ramos RA1 B cells, the IC50 is 1030 nM. Same read-out and setting: under `NC(=O)c1ncc(-c2cccc(N3Cc4ccc(Cl)cc4C3=O)c2F)c2c1[nH]c1cc(N3CCOCC3)ccc12` [Example 77] stands 81 nM; under `Cc1c(-c2cnc(C(N)=O)c3[nH]c4cc5c(cc4c23)OCO5)cccc1N1Cc2ccc(Cl)cc2C1=O` [Example 79], 856 nM; under `COCCOc1ccc2c(c1)[nH]c1c(C(N)=O)ncc(-c3cccc(N4Cc5ccc(OC)cc5C4=O)c3F)c12` [Example 82], 1080 nM.

Turning to `COCCOc1ccc2c(c1)[nH]c1c(C(N)=O)ncc(-c3cccc(N4Cc5ccc(F)cc5C4=O)c3F)c12` [Example 85], in the assay with Ramos RA1 B cells, the IC50 is 1420 nM. Take `COCCOc1ccc2c(c1)[nH]c1c(C(N)=O)ncc(-c3cccc(-n4cnc5c(F)cccc5c4=O)c3C)c12` [Example 87]: the values for the IC50 in the assay on Ramos RA1 B cells and on human recombinant Btk were 63 nM and 7 nM, respectively. As to `Cc1c(-c2cnc(C(N)=O)c3[nH]c4cc(OCCO)ccc4c23)cccc1-n1cnc2ccc(F)cc2c1=O` [Example 90], in the assay with Ramos RA1 B cells, the IC50 stood at 84 nM. Still for that read-out and setting: the same measure for `Cc1c(-c2cnc(C(N)=O)c3[nH]c4cc(N5CCOCC5)ccc4c23)cccc1N1Cc2ccc(Cl)cc2C1=O` [Example 92]: 56 nM. Still for that read-out and setting: the same measure for `Cc1c(-c2cnc(C(N)=O)c3[nH]c4cc(N5CCOCC5)ccc4c23)cccc1-n1cnc2c(F)cccc2c1=O` [Example 97]: 15 nM.

As for `Cc1c(-c2nnc(C(N)=O)c3[nH]c4cc(OCCO)ccc4c23)cccc1N1Cc2ccc(Cl)cc2C1=O` [Example 99], the IC50 on human recombinant Btk was found to be 8 nM. Turning to `Cc1c(-c2nnc(C(N)=O)c3[nH]c4cc(C(C)(C)O)ccc4c23)cccc1N1Cc2ccc(Cl)cc2C1=O` [Example 100], the half-maximal inhibitory concentration (IC50) in the assay on Ramos RA1 B cells came to 19 nM. Consider `Cc1c(-c2ccc(C(N)=O)c3[nH]c4cnc(C(C)(C)O)cc4c23)cccc1-n1cnc2cccc(F)c2c1=O` [Example 110], for which the half-inhibitory concentration (IC50) in the assay on Ramos RA1 B cells is 96 nM; on human recombinant Btk it was 14 nM.

In the case of `Cc1c(-c2ccc(C(N)=O)c3[nH]c4cc(C(=O)N(C)C)ncc4c23)cccc1-n1cnc2ccccc2c1=O` [Example 117], the IC50 with Ramos RA1 B cells was determined as 294 nM; at human recombinant Btk it was 23 nM.

For the origin of these results see patent US8685969B2, “Carboline carboxamide compounds useful as kinase inhibitors” (Bristol-Myers Squibb Company, priority 2010, dated 2014).
